The test system of one assay is human fibroblasts. The assay is described as follows: CPP-induced generation of human iPSCs. In kind it is cell-based. An excerpt:
It is known that persistent expression (about 2 weeks) of the reprogramming factors is required using viral vectors to generate mouse iPSCs. […] We hypothesized that activation of the TLR3 pathway might facilitate epigenetic alterations required for full transcriptional effect of the CPPs. We also attempted to mimic the biphasic effect of the reprogramming factors introduced as viral vectors by reducing the dose of CPPs after 6 days. Accordingly, we exposed human fibroblasts to the four CPP-transcription factors (Oct4-R11, Sox2-R11, Klf4-R11 and cMyc-R11) (at a dose of 200 nM for days 1-6, and a dose of 100 nM for days 7-21), in the presence or absence of poly I:C (300 ng/ml) for days 1-6 (FIG. 7A). The cultures were transferred to feeder cells (inactivated MEFs) at day 26. In the presence of poly I:C, Oct4 expression was accelerated (FIG. 7B). […] Small colonies were observed by day 21 and ES like colonies appeared by day 30, many of which expressed TRA-1-81 as indicated by live cell staining. By contrast, in human fibroblasts not exposed to poly I:C, colonies were not observed until day 30 days. By day 40, colony number was increased by more than 4-fold in cells exposed to poly I:C (FIG. 7C). Application of our insights regarding the role of TLR3 signaling in nuclear reprogramming permitted us to successfully reprogram human fibroblasts to pluripotency using CPPs.
Protein-iPSCs: Recombinant Oct4, Sox2, Klf4, and cMyc human proteins (CPPs) contained an eleven-arginine membrane penetration domain at the C terminus were obtained from Stemgent. Human fibroblasts were treated with CPPs encoding the reprogramming factors (CPP-Oct4, CPP-Sox2, CPP-Klf4 and CPP-Myc) daily for 6 days with 200 nM CPPs, followed by daily treatments of 100 nM CPPs from day 7 to day 20. Poly I:C (300 ng/ml) or vehicle was added to the cell simultaneously only up to day 6. The cells were passed onto MEF feeders at day 30. After 20 days of CPP treatments, wells were closely scanned for colonies.
Immunostaining of Live Cells For the detection of SSEA-1 or TRA-1-81 in live cells, the primary Ab (anti-mouse SSEA-1, antihuman TRA-1-81, Stemgent) was diluted to a final concentration of 2.5 to 5 μg/ml in fresh cell culture medium and incubated with cells for 30 minutes at 37° C. and 5% CO2. After gentle washing the cells were examined under a fluorescent microscope.

In a further assay the test system is human BJ fibroblasts. Briefly: Temporal target and pluripotency gene expression (qPCR) after retroviral vector, CPP or TLR3 agonist treatment. Format: cell-based. The text has this:
In an effort to understand and overcome this failure, we examined the temporal sequence of target gene expression in response to a retroviral construct (pMX-Sox2) versus the corresponding CPP(CPP-SOX2). We focused on validated downstream targets such as Jarid2, Zic2, and bMyb for Sox2-activated genes, as well as, downstream genes known to function in nuclear reprogramming, i.e. Nanog, Sox2 and Oct4. Human fibroblasts were synchronized by serum starvation and then subjected to either a single infection with pMX-Sox2 or daily treatments of CPP-SOX2, and gene expression was assayed over 6 days.
Viral preparation and infection HEK293FT cells were plated at 6×10^6 cells per T225 flask and incubated overnight. Cells were transfected with 10 μg of VSV-G (envelope protein), 15 μg of pUMVC (packaging plasmid) and 10 μg of gene of interest (Sox2 or Oct4) with Lipofectamine. 48 hours after transfection, the supernatant of transfectant was collected and filtered through a 0.45 μm filter. Following spinning at 17,100 rpm for 2 hr 20 min, the viral pellet was resuspended to make 100× stock solutions. Human fibroblasts were seeded at 5×10^4 cells per well of a 6-well dish a day before transduction. The medium was replaced with virus-containing supernatant supplemented with 8 μg/ml polybrene, and incubated for 24 hr.
Treatments At 60-70% confluency, BJ fibroblast cells were serum-starved using 1% serum to induce G1 cell cycle arrest. The synchronized BJ fibroblasts were then subjected to either a single infection with retroviral constructs or daily treatments with 200 nM CPPs (CPP-SOX2 or CPP-OCT4). Poly I:C (300 ng/ml) was added to the cells simultaneously with the CPPs. For experiments involving peptide inhibitors, cells were pretreated for 6 hrs at 40 uM with either MyD88 inhibitory peptide (Pepinh-MyD) or TRIF inhibitory peptide (Pepinh-TRIF) followed by CPP treatments.
Gene Expression and Microarray Analyses RNA was isolated with the RNeasy kit. First-strand cDNA was primed with oligo(dT) primers and qPCR was performed with primer sets from Applied Biosystems. […]

As for “Polyinosinicpolycytidylic acid [Poly I:C]”, the “increase in colony number” value in the assay on human fibroblasts (day 40, cells exposed to poly I:C versus not) is recorded as “more than 4 fold”. Besides, in the assay with human fibroblasts (four CPPs 200 nM days 1-6, 100 nM days 7-21, poly I:C 300 ng/ml days 1-6), the Oct4 expression result was “accelerated”. For the same substance, the iPSC generation entry with human fibroblasts (four CPPs plus poly I:C 300 ng/ml days 1-6) is “accelerated iPSC generation”. Further, the “small colonies observed by” value in the assay on human fibroblasts (four CPPs plus poly I:C 300 ng/ml days 1-6, without poly I:C not until day 30) was at most 21 days. Moreover, the “target and pluripotency gene expression” value in the assay with human BJ fibroblasts (agent alone, CPP 200 nM daily or single infection on Day 0, assayed over 6 days) was “unaffected”. For the same substance, the “temporal expression of the downstream genes induced by CPP-OCT4” value in the assay with human BJ fibroblasts (combined with CPP-OCT4 200 nM daily) is recorded as “accelerated”. The “expression of the downstream genes induced by CPP-SOX2” value in the assay with human BJ fibroblasts (combined with CPP-SOX2 200 nM daily, poly I:C 300 ng/ml) was “accelerated”.
